{
  "source": "patent US6160011A",
  "about": "(priority 1998, dated 2000)",
  "key": {"[1]": {"system": "androgen receptor (in vivo functional activity)", "conditions": "vs other antiandrogen therapies; cited from earlier work"}, "[2]": {"conditions": "cited from earlier work"}, "[3]": {"biological_target": "T1, cytosolic androgen receptor (AR) (Rattus norvegicus, UniProt P15207)", "T1 construct": "The supernatant (cytosol) containing AR protein was removed and stored; from tissue; host or cells: ventral prostate cytosol of castrated male Sprague-Dawley rats", "T1 sequence (P15207 1-902)": "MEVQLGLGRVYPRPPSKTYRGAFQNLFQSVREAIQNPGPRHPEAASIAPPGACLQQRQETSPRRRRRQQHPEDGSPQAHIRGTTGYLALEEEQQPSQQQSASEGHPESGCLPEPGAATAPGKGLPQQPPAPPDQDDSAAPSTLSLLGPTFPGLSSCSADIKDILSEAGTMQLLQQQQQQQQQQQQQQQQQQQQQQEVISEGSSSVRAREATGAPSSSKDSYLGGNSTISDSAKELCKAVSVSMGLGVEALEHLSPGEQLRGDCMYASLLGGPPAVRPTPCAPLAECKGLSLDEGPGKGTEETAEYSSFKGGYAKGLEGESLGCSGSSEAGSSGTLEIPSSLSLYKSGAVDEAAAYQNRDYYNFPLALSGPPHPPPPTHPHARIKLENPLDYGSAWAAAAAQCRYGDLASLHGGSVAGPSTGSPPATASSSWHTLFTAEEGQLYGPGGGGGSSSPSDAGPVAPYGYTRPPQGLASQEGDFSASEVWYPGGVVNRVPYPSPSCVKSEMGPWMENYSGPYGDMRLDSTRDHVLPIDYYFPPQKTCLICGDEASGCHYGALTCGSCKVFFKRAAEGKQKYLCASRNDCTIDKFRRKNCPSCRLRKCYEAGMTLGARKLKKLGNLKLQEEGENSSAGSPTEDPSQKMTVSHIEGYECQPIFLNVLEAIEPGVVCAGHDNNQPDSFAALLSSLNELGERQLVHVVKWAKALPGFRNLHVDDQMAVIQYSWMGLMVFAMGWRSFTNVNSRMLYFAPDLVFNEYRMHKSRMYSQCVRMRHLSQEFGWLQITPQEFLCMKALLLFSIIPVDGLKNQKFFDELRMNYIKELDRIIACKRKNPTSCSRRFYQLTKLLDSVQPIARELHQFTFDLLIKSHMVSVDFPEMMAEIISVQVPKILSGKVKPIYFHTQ", "experiment": "Saturation binding of 3H-MIB to AR in cytosol (Scatchard)", "set-up": "species or system Sprague-Dawley rats", "conditions": "mean±S.D., n=3; 4° C., 18 hours"}, "AR": {"system": "AR", "experiment": "Covalent (irreversible) binding to the AR", "conditions": "studies not described"}, "[4]": {"system": "AR (plasmid pCMVhAR) in CV-1 cells", "experiment": "Transcriptional activation (AR-mediated luciferase reporter, cotransfected CV-1 cells)", "assay_type": "cell-based", "conditions": "for minimal effective concentration: read-out: Potency: lowest concentration of the ligand capable of maximally stimulating AR-mediated transcription", "description": "The agonist activity of each ligand was examined using transfected CV-1 cells (American Type Culture Collection, Rockville, Md.). CV-1 cells were maintained in DMEM containing 10% FBS at 37° C. in a humidified atmosphere containing 5% carbon dioxide. DMEM without phenol red was used during transfection studies. One day before transfection, monolayer cells were removed from flasks and plated at a density of 4.5×10^5 cells/well in 6-well tissue culture plates. Cells in each well were then cotransfected with 100 ng of an AR expression vector (plasmid pCMVhAR; provided by Dr. Elizabeth Wilson at The University of North Carolina, Chapel Hill, N.C.), 2.5 μg of a luciferase reporter vector (plasmid pMMTV-Luc; provided by Dr. Ronald Evans at The Salk Institute, San Diego, Calif.), and 2.5 μg of a control β-galactosidase vector (plasmid pSV-β-galactosidase; Promega Corporation, Madison, Wis.). Transfection was performed using Lipofectamine™ according to the manufacturer's instructions (Life Technologies, Gaithersburg, Md.). Ten hours after adding the transfection reagent, cells were washed twice with DMEM containing 0.2% FBS and then returned to the incubator. After an additional 10 to 12 hours of incubation, the medium was removed and replaced with DMEM containing 0.2% FBS and various concentrations of DHT or the ligand of interest. Final ligand concentrations were 0.1, 1, 10, 50, 100, 500, and 1,000 nM. The drug-containing medium was replaced after 24 hours of incubation to minimize the possible effects of ligand degradation on measurement of transcriptional activation. Control studies in which neither DHT nor ligand were added to the medium were also performed. Cells were washed with phosphate buffered saline, pH 7.4, after 48 hours of drug treatment and harvested using 350 μL of reporter lysis buffer (Promega Corporation, Madison, Wis.). Cell lysates were transferred to a microcentrifuge tube, vortexed briefly, and centrifuged at 12,000 g for 2 minutes; An aliquot (150 μL) of supernatant was used for determination of β-galactosidase activity in each well using a spectrophotometer (Cary Model 1E, Varian Associates, Sunnyvale, Calif.) set at a wavelength of 420 nm. A separate aliquot (100 μL) was used for determination of luciferase activity assay (Luciferase Assay System, Promega Corporation, Madison, Wis.) using an automated luminometer (Model AutoLumat LB953, Wallac Inc., Gaithersburg, Md.). Viable cell numbers and transfection efficiency in each well were normalized by expressing the transcriptional activation as a ratio of the luciferase activity to β-galactosidase activity in individual wells. […] All experiments were performed in triplicate. Potency was reported as the lowest concentration of the ligand used during transfection experiments capable of producing maximal AR-mediated transcriptional activation."}, "[5]": {"biological_target": "T1, cytosolic androgen receptor (AR)", "experiment": "biochemical", "assay_type": "binding, Sprague-Dawley rats"}, "sperm production in men": {"system": "sperm production in men", "conditions": "cited from earlier work"}, "[6]": {"conditions": "oral administration; cited from earlier work"}, "[7]": {"conditions": "CV-1, 48 h, read-out: Agonist Activity (% of DHT): maximal percentage of transcriptional activation observed for each ligand"}, "[8]": {"conditions": "CV-1, read-out: agonist activity"}, "[9]": {"conditions": "3H-MIB 1 nM, 4° C., 18 hours, R-isomers of C-1 to C-5, read-out: Ki (Table 1)"}, "[10]": {"conditions": "healthy male volunteers, single oral dose of the racemic mixture"}},
  "note": "Read-outs that look alike come from different tables or passages of the source.",
  "data": [
    {"compound": "CC(O)(CS(=O)(=O)c1ccc(F)cc1)C(=O)Nc1ccc(C#N)c(C(F)(F)F)c1", "note": "(racemic) [Casodex]", "values": [
      {"measurement": "tolerance (in words)", "setting": "[1]", "value": "improved tolerance"},
      {"measurement": "oral absorption", "setting": "[2]; after oral administration", "value": "well absorbed after oral administration"},
      {"measurement": "biological half-life", "setting": "[2]; in man", "value": 6, "unit": "days"}
    ]},
    {"compound": "C[C@@H]1CC2=CC(=O)CC[C@@H]2[C@H]2CC[C@@]3(C)[C@@H](CC[C@]3(C)O)[C@@H]21", "note": "[3H-MIB, (17α-methyl-^3 H)-Mibolerone]", "values": [
      {"measurement": "Kd", "setting": "[3]", "value": "0.19 ± 0.01", "unit": "nM"}
    ]},
    {"compound": "C[C@](O)(CSc1ccc(NC(=O)CCl)cc1)C(=O)Nc1ccc(C#N)c(C(F)(F)F)c1", "note": "[C-1 (R)]", "values": [
      {"measurement": "covalent (irreversible) binding to AR", "setting": "AR", "value": "does not covalently (i.e., irreversibly) bind the AR"}
    ]},
    {"compound": "C[C@](O)(CBr)C(=O)Nc1ccc(C#N)c(C(F)(F)F)c1", "note": "[C-2]", "values": [
      {"measurement": "Emax", "setting": "[4]; [7]", "value": "18.5 ± 5.08", "unit": "%"},
      {"measurement": "minimal effective concentration", "setting": "[4]; CV-1, 48 h", "value": 0.5, "unit": "µM"},
      {"measurement": "Emax", "setting": "[4]; [8]", "value": "< 20", "unit": "%"},
      {"measurement": "Ki", "setting": "[5]; [9]", "value": "7.98 ± 0.86", "unit": "nM"}
    ]},
    {"compound": "C[C@](O)(CI)C(=O)Nc1ccc(C#N)c(C(F)(F)F)c1", "note": "[C-4]", "values": [
      {"measurement": "Emax", "setting": "[4]; [7]", "value": "20.5 ± 7.57", "unit": "%"},
      {"measurement": "minimal effective concentration", "setting": "[4]; CV-1, 48 h", "value": 0.5, "unit": "µM"},
      {"measurement": "Emax", "setting": "[4]; [8]", "value": "< 20", "unit": "%"},
      {"measurement": "Ki", "setting": "[5]; [9]", "value": "2.79 ± 1.35", "unit": "nM"}
    ]},
    {"compound": "C[C@](O)(CI)C(=O)Nc1ccc([N+](=O)[O-])c(C(F)(F)F)c1", "note": "[C-5]", "values": [
      {"measurement": "Emax", "setting": "[4]; [7]", "value": "88.6 ± 18", "unit": "%"},
      {"measurement": "minimal effective concentration", "setting": "[4]; CV-1, 48 h", "value": 0.5, "unit": "µM"},
      {"measurement": "Ki", "setting": "[5]; [9]", "value": "0.86 ± 0.11", "unit": "nM"}
    ]},
    {"compound": "CC(=O)Nc1ccc(S(=O)(=O)C[C@](C)(O)C(=O)Nc2ccc(C#N)c(C(F)(F)F)c2)cc1", "note": "[C-7]", "values": [
      {"measurement": "Ki", "setting": "[5]", "value": 1.7, "unit": "nM"},
      {"measurement": "RBA (%): (IC50 of DHT)/(IC50 of a ligand)*100%", "setting": "[5]", "value": 15.9, "unit": "%"}
    ]},
    {"compound": "CC(=O)Nc1ccc(SC[C@](C)(O)C(=O)Nc2ccc(C#N)c(C(F)(F)F)c2)cc1", "note": "[C-8 (R)]", "values": [
      {"measurement": "Ki", "setting": "[5]", "value": 1, "unit": "nM"},
      {"measurement": "RBA (%): (IC50 of DHT)/(IC50 of a ligand)*100%", "setting": "[5]", "value": 26.9, "unit": "%"}
    ]},
    {"compound": "CC(=O)Nc1ccc(SC[C@@](C)(O)C(=O)Nc2ccc(C#N)c(C(F)(F)F)c2)cc1", "note": "[C-8 (S)]", "values": [
      {"measurement": "Ki", "setting": "[5]", "value": 141, "unit": "nM"},
      {"measurement": "RBA (%): (IC50 of DHT)/(IC50 of a ligand)*100%", "setting": "[5]", "value": 0.19, "unit": "%"}
    ]},
    {"compound": "CC(=O)N(C(C)=O)c1ccc(SC[C@](C)(O)C(=O)Nc2ccc(C#N)c(C(F)(F)F)c2)cc1", "note": "[C-9]", "values": [
      {"measurement": "Ki", "setting": "[5]", "value": 2.64, "unit": "nM"},
      {"measurement": "RBA (%): (IC50 of DHT)/(IC50 of a ligand)*100%", "setting": "[5]", "value": 10.2, "unit": "%"}
    ]},
    {"compound": "CCC(=O)Nc1ccc(SC[C@](C)(O)C(=O)Nc2ccc(C#N)c(C(F)(F)F)c2)cc1", "note": "[C-10]", "values": [
      {"measurement": "Ki", "setting": "[5]", "value": 3.81, "unit": "nM"},
      {"measurement": "RBA (%): (IC50 of DHT)/(IC50 of a ligand)*100%", "setting": "[5]", "value": 7.08, "unit": "%"}
    ]},
    {"compound": "CCC(=O)N(C(=O)CC)c1ccc(SC[C@](C)(O)C(=O)Nc2ccc(C#N)c(C(F)(F)F)c2)cc1", "note": "[C-11]", "values": [
      {"measurement": "Ki", "setting": "[5]", "value": "> 1000", "unit": "nM"},
      {"measurement": "RBA (%): (IC50 of DHT)/(IC50 of a ligand)*100%", "setting": "[5]", "value": "< 0.10", "unit": "%"}
    ]},
    {"compound": "C[C@]12CCC(=O)C[C@@H]1CC[C@@H]1[C@@H]2CC[C@]2(C)[C@@H](O)CC[C@@H]12", "note": "[DHT, dihydrotestosterone, reference compound]", "values": [
      {"measurement": "Emax", "setting": "[4]; [7]", "value": 100, "unit": "%"}
    ]},
    {"compound": "C[C@](O)(CS(=O)(=O)c1ccc(F)cc1)C(=O)Nc1ccc(C#N)c(C(F)(F)F)c1", "note": "[R-Bicalutamide, reference compound]", "values": [
      {"measurement": "AR-mediated transcriptional activation (in words)", "setting": "[4]", "value": "unable to stimulate AR-mediated transcriptional activation at even the highest concentrations tested"},
      {"measurement": "Emax", "setting": "[4]; [7]", "value": "8.28 ± 2.66", "unit": "%"},
      {"measurement": "Emax at 1 µM", "setting": "[4]; CV-1, read-out: mean agonist activity at 1,000 nM", "value": 8.3, "unit": "%"},
      {"measurement": "elimination half-life", "setting": "[2]; [10]", "value": 4.2, "unit": "days"}
    ]},
    {"compound": "C[C@@](O)(CS(=O)(=O)c1ccc(F)cc1)C(=O)Nc1ccc(C#N)c(C(F)(F)F)c1", "note": "[S-Casodex]", "values": [
      {"measurement": "elimination half-life (t1/2)", "setting": "[2]; [10]", "value": 19, "unit": "h"}
    ]},
    {"compound": "CCCCCCC(=O)O[C@H]1CC[C@H]2[C@@H]3CCC4=CC(=O)CC[C@]4(C)[C@H]3CC[C@]12C", "note": "[testosterone enanthate]", "values": [
      {"measurement": "testosterone peak levels after injection (in words)", "setting": "sperm production in men; immediately following intramuscular injection", "value": "supraphysiologic peak levels of testosterone"},
      {"measurement": "azoospermia or severe oligospermia (less than 3 million sperm per ml) and infertility, share of men", "setting": "sperm production in men; weekly intramuscular injections, WHO report", "value": 98, "unit": "%"}
    ]},
    {"compound": "C[C@]12CC[C@H]3[C@@H](CCC4=CC(=O)CC[C@@]43C)[C@@H]1CC[C@@H]2O", "note": "[testosterone]", "values": [
      {"measurement": "oral absorption / androgenic effect (in words)", "setting": "[6]", "value": "readily absorbed after oral administration, but demonstrates little androgenic effect due to rapid hepatic metabolism"}
    ]}
  ]
}
